# pEC50: −log10 of the molar value. Starred links: 1 amine or outer side, 2 acyl side, 3 side chain; linkers in the order of their positions; H or OH if unused. Non-standard residues stand in square brackets, D forms with d. Residues, ends and D or L forms follow the SMILES beside them. Groups on a side chain read outwards from the residue. *: point of attachment. C20 diacid = O=C(O)CCCCCCCCCCCCCCCCCCC(=O)*; C18 diacid = O=C(O)CCCCCCCCCCCCCCCCC(=O)*; d(βAsp) = O=C(O)[C@@H](CC(=O)[*:2])N[*:1]; γGlu = O=C(O)[C@H](CCC(=O)[*:2])N[*:1]; Desaminohistidyl = O=C(CCc1c[nH]cn1)*; Trx = NC[C@H]1CC[C@H](C(=O)O)CC1; AEEA = NCCOCCOCC(=O)O; Aib = CC(C)(N)C(=O)O; Inp = O=C(O)C1CCNCC1; Bn = c1ccc(C*)cc1
# Biological target: human serum albumin (HSA) (Homo sapiens, UniProt P02768)
# Test: Albumin binding affinity, competition scintillation proximity assay
# Conditions: not given
# Sequence of human serum albumin (HSA) (P02768 25-609): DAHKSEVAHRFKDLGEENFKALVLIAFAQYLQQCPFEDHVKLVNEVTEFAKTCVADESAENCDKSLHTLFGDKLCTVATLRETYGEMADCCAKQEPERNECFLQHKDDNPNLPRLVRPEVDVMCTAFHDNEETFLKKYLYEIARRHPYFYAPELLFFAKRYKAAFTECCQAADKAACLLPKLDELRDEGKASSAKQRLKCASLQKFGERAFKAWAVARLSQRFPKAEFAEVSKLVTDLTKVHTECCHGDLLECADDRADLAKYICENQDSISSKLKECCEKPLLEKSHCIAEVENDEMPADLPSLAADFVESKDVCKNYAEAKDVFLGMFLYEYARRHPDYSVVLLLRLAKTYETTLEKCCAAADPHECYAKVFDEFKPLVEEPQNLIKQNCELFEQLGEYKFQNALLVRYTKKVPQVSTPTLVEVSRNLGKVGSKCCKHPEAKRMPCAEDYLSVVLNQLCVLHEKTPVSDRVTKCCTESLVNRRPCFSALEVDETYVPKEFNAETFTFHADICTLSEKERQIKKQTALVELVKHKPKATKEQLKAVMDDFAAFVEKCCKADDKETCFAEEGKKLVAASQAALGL
row,pEC50,SMILES
1,6.10 to 6.52,"CC[C@H](C)[C@H](NC(=O)[C@H](Cc1ccccc1)NC(=O)[C@H](CCC(=O)O)NC(=O)[C@H](CCCNC(=N)N)NC(=O)[C@H](C)NC(=O)[C@H](C)NC(=O)[C@H](CCC(N)=O)NC(=O)CNC(=O)[C@H](CCC(=O)O)NC(=O)[C@H](CCCCNC(=O)COCCOCCNC(=O)COCCOCCNC(=O)C[C@@H](NC(=O)C1CCN(C(=O)CCCCCCCCCCCCCCCCC(=O)O)CC1)C(=O)O)NC(=O)[C@H](Cc1ccc(O)cc1)NC(=O)[C@H](CO)NC(=O)[C@H](CO)NC(=O)[C@@H](NC(=O)[C@H](CC(=O)O)NC(=O)[C@H](CO)NC(=O)[C@@H](NC(=O)[C@H](Cc1ccccc1)NC(=O)[C@@H](NC(=O)CNC(=O)[C@H](CCC(=O)O)NC(=O)C(C)(C)NC(=O)[C@@H](N)Cc1c[nH]cn1)[C@@H](C)O)[C@@H](C)O)C(C)C)C(=O)N[C@@H](CCC(=O)O)C(=O)N[C@@H](Cc1c[nH]c2ccccc12)C(=O)N[C@@H](CC(C)C)C(=O)N[C@H](C(=O)N[C@@H](CCCCN)C(=O)NCC(=O)N[C@@H](CCCNC(=N)N)C(=O)NCC(N)=O)[C@@H](C)OCc1ccccc1 [Example 8, N-ε^20({2-[2-(2-{2-[2-((R)-3-carboxy-3-{[1-(17-carboxyheptadecanoyl)piperidine-4-carbonyl]amino}propionylamino)ethoxy]ethoxy}acetylamino)ethoxy]ethoxy}acetyl) [Aib^8,Lys^20,Arg^28,Glu^30,Thr(O-benzyl)^33]GLP-1-(7-37)amide] (H-H[Aib]EGTFTSDVSSYK([AEEA-AEEA-d(βAsp)-Inp-C18 diacid])EGQAAREFIEWLT(Bn)KGRG-NH2; N-terminus assumed)"
2,6.82 to 7.00,CC[C@H](C)[C@H](NC(=O)[C@H](Cc1ccccc1)NC(=O)[C@H](CCC(=O)O)NC(=O)[C@H](CCCCNC(=O)COCCOCCNC(=O)COCCOCCNC(=O)CC[C@H](NC(=O)C1CCN(C(=O)CCCCCCCCCCCCCCCCCCC(=O)O)CC1)C(=O)O)NC(=O)[C@H](C)NC(=O)[C@H](C)NC(=O)[C@H](CCC(N)=O)NC(=O)[C@H](CCC(=O)O)NC(=O)[C@H](CCC(=O)O)NC(=O)[C@H](CC(C)C)NC(=O)[C@H](Cc1ccc(O)cc1)NC(=O)[C@H](CO)NC(=O)[C@H](CO)NC(=O)[C@@H](NC(=O)[C@H](CC(=O)O)NC(=O)[C@H](CO)NC(=O)[C@@H](NC(=O)[C@H](Cc1ccccc1)NC(=O)[C@@H](NC(=O)CNC(=O)[C@H](CCC(=O)O)NC(=O)C(C)(C)NC(=O)[C@@H](N)Cc1c[nH]cn1)[C@@H](C)O)[C@@H](C)O)C(C)C)C(=O)N[C@@H](C)C(=O)N[C@@H](Cc1c[nH]c2ccccc12)C(=O)N[C@@H](CC(C)C)C(=O)N[C@H](C(=O)N[C@@H](CCC(N)=O)C(=O)NCC(=O)N[C@@H](CCCNC(=N)N)C(=O)NCC(=O)O)C(C)C [Example 69] (H-H[Aib]EGTFTSDVSSYLEEQAAK([AEEA-AEEA-γGlu-Inp-C20 diacid])EFIAWLVQGRG-OH)
3,6.10 to 6.52,"CC[C@H](C)[C@H](NC(=O)[C@H](Cc1ccccc1)NC(=O)[C@H](CCC(=O)O)NC(=O)[C@H](CCCNC(=N)N)NC(=O)[C@H](C)NC(=O)[C@H](C)NC(=O)[C@H](CCC(N)=O)NC(=O)[C@H](CCC(=O)O)NC(=O)[C@H](CCC(=O)O)NC(=O)[C@H](CC(C)C)NC(=O)[C@H](Cc1ccc(O)cc1)NC(=O)[C@H](CO)NC(=O)[C@H](CO)NC(=O)[C@@H](NC(=O)[C@H](CC(=O)O)NC(=O)[C@H](CO)NC(=O)[C@@H](NC(=O)[C@H](Cc1ccccc1)NC(=O)[C@@H](NC(=O)CNC(=O)[C@H](CCC(=O)O)NC(=O)[C@H](C)NC(=O)CCc1c[nH]cn1)[C@@H](C)O)[C@@H](C)O)C(C)C)C(=O)N[C@@H](C)C(=O)N[C@@H](Cc1c[nH]c2ccccc12)C(=O)N[C@@H](CC(C)C)C(=O)N[C@H](C(=O)N[C@@H](CCCNC(=N)N)C(=O)NCC(=O)N[C@@H](CCCNC(=N)N)C(=O)NCC(=O)N[C@@H](CCCCNC(=O)COCCOCCNC(=O)COCCOCCNC(=O)CC[C@H](NC(=O)C1CCN(C(=O)CCCCCCCCCCCCCCCCCCC(=O)O)CC1)C(=O)O)C(N)=O)C(C)C [Example 14, [DesaminoHis7,Glu22,Arg26,Arg34]GLP-1-(7-37)Lys[2-(2-[2-(2-[2-(2-((S)-4-[1-[19-Carboxynonadecanoyl]piperidine-4-carbonylamino]-4-carboxybutyrylamino)ethoxy)ethoxy]acetylamino)ethoxy]ethoxy)acetyl]amide] (Desaminohistidyl-AEGTFTSDVSSYLEEQAAREFIAWLVRGRGK([AEEA-AEEA-γGlu-Inp-C20 diacid])-NH2)"

# Same assay, conditions: human, biotinylated human serum albumin on streptavidin-SPA beads, pH 7.4
row,EC50 at 20 h [nM],SMILES
1,1 to 100,"CC[C@H](C)[C@H](NC(=O)[C@H](Cc1ccccc1)NC(=O)[C@H](CCC(=O)O)NC(=O)[C@H](CCCCNC(=O)COCCOCCNC(=O)CC[C@H](NC(=O)CC[C@H](NC(=O)CCCCCCCCCCCNC(=O)CCCS(=O)(=O)NC(=O)CCCCCCCCCCCCCCCc1nnn[nH]1)C(=O)O)C(=O)O)NC(=O)[C@H](C)NC(=O)[C@H](C)NC(=O)[C@H](CCC(N)=O)NC(=O)CNC(=O)[C@H](CCC(=O)O)NC(=O)[C@H](CC(C)C)NC(=O)[C@H](Cc1ccc(O)cc1)NC(=O)[C@H](CO)NC(=O)[C@H](CO)NC(=O)[C@@H](NC(=O)[C@H](CC(=O)O)NC(=O)[C@H](CO)NC(=O)[C@@H](NC(=O)[C@H](Cc1ccccc1)NC(=O)[C@@H](NC(=O)CNC(=O)[C@H](CCC(=O)O)NC(=O)C(C)(C)NC(=O)[C@@H](N)Cc1c[nH]cn1)[C@@H](C)O)[C@@H](C)O)C(C)C)C(=O)N[C@@H](C)C(=O)N[C@@H](Cc1c[nH]c2ccccc12)C(=O)N[C@@H](CC(C)C)C(=O)N[C@H](C(=O)N[C@@H](CCCNC(=N)N)C(=O)O)C(C)C [Example 37, N-epsilon26-[2-(2-{2-[(S)-4-Carboxy-4-((S)-4-carboxy-4-{12-[4-(16-(1H-tetrazol-5-yl)hexadecanoylsulfamoyl)butyrylamino]-dodecanoylamino}butyrylamino)butyrylamino]ethoxy}ethoxy)acetyl][Aib8,Arg34]GLP-1-(7-34)]"
2,800 to 2000,"CC[C@H](C)[C@H](NC(=O)[C@H](Cc1ccccc1)NC(=O)[C@H](CCC(=O)O)NC(=O)[C@H](CCCNC(=N)N)NC(=O)[C@H](C)NC(=O)[C@H](C)NC(=O)[C@H](CCC(N)=O)NC(=O)[C@H](CCC(=O)O)NC(=O)[C@H](CCC(=O)O)NC(=O)[C@H](CC(C)C)NC(=O)[C@H](Cc1ccc(O)cc1)NC(=O)[C@H](CO)NC(=O)[C@H](CO)NC(=O)[C@@H](NC(=O)[C@H](CC(=O)O)NC(=O)[C@H](CO)NC(=O)[C@@H](NC(=O)[C@H](Cc1ccccc1)NC(=O)[C@@H](NC(=O)CNC(=O)[C@H](CCC(=O)O)NC(=O)[C@H](C)NC(=O)CCc1c[nH]cn1)[C@@H](C)O)[C@@H](C)O)C(C)C)C(=O)N[C@@H](C)C(=O)N[C@@H](Cc1c[nH]c2ccccc12)C(=O)N[C@@H](CC(C)C)C(=O)N[C@H](C(=O)N[C@@H](CCCNC(=N)N)C(=O)NCC(=O)N[C@@H](CCCNC(=N)N)C(=O)NCC(=O)N[C@@H](CCCCNC(=O)COCCOCCNC(=O)COCCOCCNC(=O)CC[C@H](NC(=O)[C@H]1CC[C@H](CNC(=O)CCCCCCCCCCCCCCCCCCC(=O)O)CC1)C(=O)O)C(N)=O)C(C)C [Example 27, [DesaminoHis7,Glu22,Arg26,Arg34]GLP-1-(7-37)Lys[2-(2-{2-[2-(2-{2-[4-Carboxy-4-({trans-4-[(19-carboxy-nonadecanoylamino)methyl]cyclohexanecarbonyl}amino)butyrylamino]ethoxy}ethoxy)acetylamino]ethoxy}ethoxy)acetyl]-amide] (Desaminohistidyl-AEGTFTSDVSSYLEEQAAREFIAWLVRGRGK([AEEA-AEEA-γGlu-Trx-C20 diacid])-NH2)"
3,150 to 300,"CC[C@H](C)[C@H](NC(=O)[C@H](Cc1ccccc1)NC(=O)[C@H](CCC(=O)O)NC(=O)[C@H](CCCNC(=N)N)NC(=O)[C@H](C)NC(=O)[C@H](C)NC(=O)[C@H](CCC(N)=O)NC(=O)[C@H](CCC(=O)O)NC(=O)[C@H](CCC(=O)O)NC(=O)[C@H](CC(C)C)NC(=O)[C@H](Cc1ccc(O)cc1)NC(=O)[C@H](CO)NC(=O)[C@H](CO)NC(=O)[C@@H](NC(=O)[C@H](CC(=O)O)NC(=O)[C@H](CO)NC(=O)[C@@H](NC(=O)[C@H](Cc1ccccc1)NC(=O)[C@@H](NC(=O)CNC(=O)[C@H](CCC(=O)O)NC(=O)[C@H](C)NC(=O)CCc1c[nH]cn1)[C@@H](C)O)[C@@H](C)O)C(C)C)C(=O)N[C@@H](C)C(=O)N[C@@H](Cc1c[nH]c2ccccc12)C(=O)N[C@@H](CC(C)C)C(=O)N[C@H](C(=O)N[C@@H](CCCNC(=N)N)C(=O)NCC(=O)N[C@@H](CCCNC(=N)N)C(=O)NCC(=O)N[C@@H](CCCCNC(=O)COCCOCCNC(=O)CC[C@H](NC(=O)C1CCN(C(=O)CCCCCCCCCCCCCCCCCCC(=O)O)CC1)C(=O)O)C(=O)O)C(C)C [Example 55, [DesaminoHis7,Glu22,Arg26,34]-GLP-1 (7-37)-Lys-(2-{2-[2-((S)-4-carboxy-4-{[1-(19-carboxynonadecanoyl)piperidine-4-carbonyl]amino}butyrylamino)ethoxy]ethoxy}acetyl) peptide] (Desaminohistidyl-AEGTFTSDVSSYLEEQAAREFIAWLVRGRGK([AEEA-γGlu-Inp-C20 diacid])-OH)"
4,300 to 800,"CC[C@H](C)[C@H](NC(=O)[C@H](Cc1ccccc1)NC(=O)[C@H](CCC(=O)O)NC(=O)[C@H](CCCNC(=N)N)NC(=O)[C@H](C)NC(=O)[C@H](C)NC(=O)[C@H](CCC(N)=O)NC(=O)CNC(=O)[C@H](CCC(=O)O)NC(=O)[C@H](CC(C)C)NC(=O)[C@H](Cc1ccc(O)cc1)NC(=O)[C@H](CO)NC(=O)[C@H](CO)NC(=O)[C@@H](NC(=O)[C@H](CC(=O)O)NC(=O)[C@H](CO)NC(=O)[C@@H](NC(=O)[C@H](Cc1ccccc1)NC(=O)[C@@H](NC(=O)CNC(=O)[C@H](CCC(=O)O)NC(=O)[C@H](C)NC(=O)CCc1c[nH]cn1)[C@@H](C)O)[C@@H](C)O)C(C)C)C(=O)N[C@@H](C)C(=O)N[C@@H](Cc1c[nH]c2ccccc12)C(=O)N[C@@H](CC(C)C)C(=O)N[C@H](C(=O)N[C@@H](CCCNC(=N)N)C(=O)NCC(=O)N[C@@H](CCCNC(=N)N)C(=O)N[C@@H](CCCCNC(=O)COCCOCCNC(=O)COCCOCCNC(=O)CC[C@H](NC(=O)[C@H]1CC[C@H](CNC(=O)CCCCCCCCCCCCCCCCCCC(=O)O)CC1)C(=O)O)C(=O)O)C(C)C [Example 31, N-epsilon37-[2-(2-{2-[2-(2-{2-[(S)-4-Carboxy-4-({trans-4-[(19-carboxy-nonadecanoylamino)methyl]cyclohexanecarbonyl}amino)butyrylamino]ethoxy}ethoxy)acetylamino]ethoxy}ethoxy)acetyl][DesaminoHis7,Arg26,Arg34,Lys37]GLP-1-(7-37)]"

# Source: US9067977B2, “Peptides derivatized with A-B-C-D- and their therapeutical use” (Novo Nordisk A/S, priority 2007, dated 2015)
